Measured values published in publication PMC8333062, “Chemical tools for epichaperome-mediated interactome dysfunctions of the central nervous system” (Nature Communications, 2021).

What was measured:
CYP2C19 = target: T1, CYP2C19 (Homo sapiens, UniProt P33261); test: Cytochrome P450 profiling, benzylnirvanol; assay type: in vitro ADME; settings: for % PU-HZ151 remaining: Benzylnirvanol
T1 construct: PU-HZ151 (1 µM) was incubated with human liver microsomes (0.5 mg protein mL^−1); tissue Life Technologies HMMCPL; host or cells: human liver microsomes
T1 sequence (P33261 whole entry): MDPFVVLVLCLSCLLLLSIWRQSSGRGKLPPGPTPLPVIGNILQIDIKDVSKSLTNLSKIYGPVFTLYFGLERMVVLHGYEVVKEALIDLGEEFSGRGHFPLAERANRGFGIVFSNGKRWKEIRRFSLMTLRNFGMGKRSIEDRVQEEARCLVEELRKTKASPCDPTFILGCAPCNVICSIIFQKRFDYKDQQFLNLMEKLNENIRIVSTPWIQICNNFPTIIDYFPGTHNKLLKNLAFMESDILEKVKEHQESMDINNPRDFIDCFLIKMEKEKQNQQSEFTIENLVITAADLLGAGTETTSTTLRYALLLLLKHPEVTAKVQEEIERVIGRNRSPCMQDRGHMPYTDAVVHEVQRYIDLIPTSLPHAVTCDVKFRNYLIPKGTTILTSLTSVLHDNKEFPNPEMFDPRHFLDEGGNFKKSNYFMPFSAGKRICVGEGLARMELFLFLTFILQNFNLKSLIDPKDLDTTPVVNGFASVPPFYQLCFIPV
Experimental: (§1) To identify cytochrome P450 enzymes responsible for PU-HZ151’s metabolism in human liver microsomes the following procedure was followed. Phosphate buffer (100 mM, pH 7.4) was prepared monthly and stored at 4 °C. Frozen stock solutions of human liver microsomes (Life Technologies; Cat# HMMCPL) were used once after thawing and were not refrozen. NADPH stock solution (50 mM) in distilled water was prepared fresh daily. […] The stock solutions of these P450 inhibitors were prepared in DMSO. […] The concentration of the chemical inhibitors used in the assay were furafylline (10 μM), tranylcypromine (2 μM), ketoconazole (1 μM), troleandomycin (20 μM), orphenadrine (50 μM), montelukast (3 μM), sulfaphenazole (10 μM), benzylnirvanol (1 μM), quinidine (1 μM), and 1-aminobenzotriazole (1 mM) for all the P450 enzymes. Timing of the reactions was started following the addition of NADPH/magnesium chloride mix and PU-HZ151. Time-dependent chemical inhibitors (furafylline, troleandomycin, orphenadrine, and 1-aminobenzotriazole) were preincubated with human microsomes in the presence of NADPH and magnesium chloride for 15 min before the addition of PU-HZ151 and timing of reactions was started after addition of PU-HZ151. […] Following brief vortexing and centrifugation, a 200 µL aliquot of the supernatant was transferred to a tube, and 10 µL of haloperidol (1 µg mL^−1) as internal standard was added. Following brief vortexing and centrifugation, 50 µL of supernatant was added to a 96-well plate for subsequent LC-MS/MS analysis. PU-HZ151 was similarly tested as above in the absence of CYP inhibitors for comparative purposes. All samples were assayed in duplicate. […] This was similarly performed for incubations of PU-HZ151 performed in the absence of CYP inhibitor.

MDA-MB-468 cells = test: Cell viability, ATP levels 72 h; assay type: cell-based, human; settings: control MDA-MB-468 of Fig. 6f; mean
[1] = target: 70 key receptor, enzyme, and ion channel proteins (Homo sapiens, UniProt P35372); test: General side effect profile (SEP) II diversity panel; assay type: binding
70 key receptor, enzyme, and ion channel proteins (Homo sapiens, UniProt P35372), sequence (P35372 whole entry): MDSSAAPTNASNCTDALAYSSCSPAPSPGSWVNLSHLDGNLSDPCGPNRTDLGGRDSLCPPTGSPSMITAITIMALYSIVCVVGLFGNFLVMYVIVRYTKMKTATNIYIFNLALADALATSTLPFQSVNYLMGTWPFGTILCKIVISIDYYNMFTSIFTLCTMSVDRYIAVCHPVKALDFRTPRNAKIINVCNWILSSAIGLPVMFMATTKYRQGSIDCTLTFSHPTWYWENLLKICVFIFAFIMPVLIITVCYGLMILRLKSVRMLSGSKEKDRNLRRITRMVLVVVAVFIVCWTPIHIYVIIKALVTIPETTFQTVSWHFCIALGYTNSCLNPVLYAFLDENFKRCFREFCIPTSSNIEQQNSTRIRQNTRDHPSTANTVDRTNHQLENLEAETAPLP

[2] = test system: 70 key receptor, enzyme, and ion channel proteins; test: as above; assay type: binding; settings: 1.0E-5 M
[3] = target: T2, 70 key receptor, enzyme, and ion channel proteins (Homo sapiens, UniProt P08173); test: as above; assay type: binding; settings: 1.0E-5 M
T2 construct: purchased Caliper Life Sciences (now PerkinElmer), NOVASCREEN General SEP II
T2 sequence (P08173 whole entry): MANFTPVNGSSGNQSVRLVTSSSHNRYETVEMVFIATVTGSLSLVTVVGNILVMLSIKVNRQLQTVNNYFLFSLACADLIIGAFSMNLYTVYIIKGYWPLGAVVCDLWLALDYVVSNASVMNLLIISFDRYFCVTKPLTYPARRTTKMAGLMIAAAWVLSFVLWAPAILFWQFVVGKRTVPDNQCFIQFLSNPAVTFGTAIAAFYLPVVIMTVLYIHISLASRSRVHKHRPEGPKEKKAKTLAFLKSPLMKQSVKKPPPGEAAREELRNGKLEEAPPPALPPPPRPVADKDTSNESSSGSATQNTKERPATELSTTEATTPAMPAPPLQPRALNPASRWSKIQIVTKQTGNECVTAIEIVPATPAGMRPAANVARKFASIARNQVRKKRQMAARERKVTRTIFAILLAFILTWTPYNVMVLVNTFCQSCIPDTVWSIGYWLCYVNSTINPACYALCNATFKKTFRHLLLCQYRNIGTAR

[4] = target: 70 key receptor, enzyme, and ion channel proteins (Homo sapiens, UniProt P41143); test: as above; assay type: binding
70 key receptor, enzyme, and ion channel proteins (Homo sapiens, UniProt P41143), sequence (P41143 whole entry): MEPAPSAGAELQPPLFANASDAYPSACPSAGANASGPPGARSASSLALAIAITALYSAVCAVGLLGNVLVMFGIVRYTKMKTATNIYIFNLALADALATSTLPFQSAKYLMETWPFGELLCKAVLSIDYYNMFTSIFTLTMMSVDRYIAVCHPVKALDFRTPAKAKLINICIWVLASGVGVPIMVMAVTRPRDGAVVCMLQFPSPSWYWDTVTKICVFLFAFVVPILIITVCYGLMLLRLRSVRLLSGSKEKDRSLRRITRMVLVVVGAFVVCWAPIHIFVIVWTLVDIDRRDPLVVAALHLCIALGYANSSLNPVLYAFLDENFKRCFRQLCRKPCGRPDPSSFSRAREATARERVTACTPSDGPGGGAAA

[5] = target: T3, 70 key receptor, enzyme, and ion channel proteins (Homo sapiens, UniProt P47898); test: as above; assay type: binding; settings: 1.0E-5 M
T3 construct: purchased Caliper Life Sciences (now PerkinElmer), NOVASCREEN General SEP II
T3 sequence (P47898 whole entry): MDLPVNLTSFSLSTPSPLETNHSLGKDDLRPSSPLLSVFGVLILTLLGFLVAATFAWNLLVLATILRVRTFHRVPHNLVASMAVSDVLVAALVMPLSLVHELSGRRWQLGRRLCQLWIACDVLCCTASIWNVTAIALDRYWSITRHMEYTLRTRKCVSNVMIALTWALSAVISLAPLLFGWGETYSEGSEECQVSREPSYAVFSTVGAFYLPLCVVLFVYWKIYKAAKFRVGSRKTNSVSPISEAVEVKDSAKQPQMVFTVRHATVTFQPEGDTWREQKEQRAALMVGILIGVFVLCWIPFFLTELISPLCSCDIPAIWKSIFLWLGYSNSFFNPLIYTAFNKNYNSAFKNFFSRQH

[6] = target: T4, hERG potassium channel (IKr) (Homo sapiens, UniProt Q12809); test: as above; assay type: binding; settings: human; 1.0E-5 M; read-out: Percent Inhibition: Potassium Channel, I [Kr] (hERG) (h)
T4 construct: purchased Caliper Life Sciences (now PerkinElmer), NOVASCREEN General SEP II
T4 sequence (Q12809 whole entry): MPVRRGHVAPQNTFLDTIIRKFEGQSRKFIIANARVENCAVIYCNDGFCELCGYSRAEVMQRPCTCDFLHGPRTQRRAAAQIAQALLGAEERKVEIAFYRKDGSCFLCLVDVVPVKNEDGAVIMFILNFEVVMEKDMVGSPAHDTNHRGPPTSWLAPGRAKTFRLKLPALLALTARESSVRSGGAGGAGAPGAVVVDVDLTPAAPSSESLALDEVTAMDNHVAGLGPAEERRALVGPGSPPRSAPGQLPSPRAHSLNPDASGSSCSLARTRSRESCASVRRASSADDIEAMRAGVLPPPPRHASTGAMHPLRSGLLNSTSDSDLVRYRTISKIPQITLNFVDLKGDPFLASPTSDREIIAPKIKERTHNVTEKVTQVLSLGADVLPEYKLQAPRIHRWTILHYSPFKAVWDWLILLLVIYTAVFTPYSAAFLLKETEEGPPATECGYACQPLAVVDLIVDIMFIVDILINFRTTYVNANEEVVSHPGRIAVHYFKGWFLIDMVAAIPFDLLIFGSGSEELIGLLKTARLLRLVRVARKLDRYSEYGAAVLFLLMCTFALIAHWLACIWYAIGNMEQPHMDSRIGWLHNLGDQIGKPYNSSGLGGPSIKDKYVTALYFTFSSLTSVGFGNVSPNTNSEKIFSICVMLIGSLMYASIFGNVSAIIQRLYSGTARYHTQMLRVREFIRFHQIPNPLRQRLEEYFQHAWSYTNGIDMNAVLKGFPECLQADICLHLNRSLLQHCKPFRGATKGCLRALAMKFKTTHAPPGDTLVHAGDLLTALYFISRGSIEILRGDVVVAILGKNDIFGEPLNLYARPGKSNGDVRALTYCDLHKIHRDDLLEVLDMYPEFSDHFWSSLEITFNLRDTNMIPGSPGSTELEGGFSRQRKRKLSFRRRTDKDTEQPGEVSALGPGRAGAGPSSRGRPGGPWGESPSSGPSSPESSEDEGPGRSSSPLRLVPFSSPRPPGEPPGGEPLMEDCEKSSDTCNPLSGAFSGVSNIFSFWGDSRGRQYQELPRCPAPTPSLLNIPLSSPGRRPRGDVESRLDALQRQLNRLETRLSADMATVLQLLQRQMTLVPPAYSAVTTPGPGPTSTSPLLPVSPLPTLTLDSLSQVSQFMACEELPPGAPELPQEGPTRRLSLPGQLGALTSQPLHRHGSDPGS

CYP2A6 = target: T5, CYP2A6 (Homo sapiens, UniProt P11509); test: Cytochrome P450 profiling, tranylcypromine; assay type: in vitro ADME; settings: for % PU-HZ151 remaining: Tranylcypromine
T5 construct: PU-HZ151 (1 µM) was incubated with human liver microsomes (0.5 mg protein mL^−1); tissue Life Technologies HMMCPL; host or cells: human liver microsomes
T5 sequence (P11509 1-494): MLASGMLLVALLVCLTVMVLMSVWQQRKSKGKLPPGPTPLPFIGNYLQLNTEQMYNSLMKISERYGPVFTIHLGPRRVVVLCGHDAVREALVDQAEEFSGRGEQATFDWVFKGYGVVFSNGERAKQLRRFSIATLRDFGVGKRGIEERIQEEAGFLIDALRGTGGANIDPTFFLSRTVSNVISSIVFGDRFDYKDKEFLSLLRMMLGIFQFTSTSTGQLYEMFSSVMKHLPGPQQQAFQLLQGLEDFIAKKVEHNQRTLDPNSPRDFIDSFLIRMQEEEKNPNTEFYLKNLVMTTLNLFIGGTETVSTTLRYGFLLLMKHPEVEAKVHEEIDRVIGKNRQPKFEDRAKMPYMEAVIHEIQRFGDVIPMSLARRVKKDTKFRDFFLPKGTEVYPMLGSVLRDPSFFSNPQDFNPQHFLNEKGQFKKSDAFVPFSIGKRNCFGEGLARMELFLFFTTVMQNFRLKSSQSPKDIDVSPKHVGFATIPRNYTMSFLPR
Experimental: as §1

CC(C)(C)CNCCn1c(Sc2cc3c(cc2I)OCO3)nc2c(N)ncnc21 [Compound 85]
% PU-HZ151 remaining (CYP2C19; 15 min): 59.2%
% PU-HZ151 remaining (CYP2C19; 30 min): 39.3%
% PU-HZ151 remaining (CYP2C19; 60 min): 20.2%
inhibition of PU-HZ151 metabolism (CYP2C19; benzylnirvanol): 4%
%Survival of cells at day 0 (ATP levels) (MDA-MB-468 cells): -90%
Percent Inhibition: Opioid, Mu (h) [1]: 56.70%
Percent Inhibition: Adenosine, Al [2]: 14.00%
Percent Inhibition: Adrenergic, Alpha 1B [2]: 27.43%
Percent Inhibition: Adrenergic, Alpha 2A (h) [2]: -1.92%
Percent Inhibition: Adrenergic, Alpha 2B [2]: 10.67%
Percent Inhibition: Adrenergic, Alpha 2C (h) [2]: 15.07%
Percent Inhibition: Adrenergic, Alpha lA [2]: 12.17%
Percent Inhibition: Angiotensin II, ATl (h) [2]: 0.36%
Percent Inhibition: Bradykinin, BK2 [2]: 10.14%
Percent Inhibition: Calcium Channel, Type N [2]: -11.15%
Percent Inhibition: Dopamine Transporter [2]: -12.87%
Percent Inhibition: Dopamine, D2s (h) [2]: 20.57%
Percent Inhibition: Dopamine, D3 [2]: -6.23%
Percent Inhibition: Esterase, Acetylcholine [2]: 6.63%
Percent Inhibition: GABA A, Agonist Site [2]: 33.91%
Percent Inhibition: GABA A, BDZ, alpha 1 site [2]: 18.61%
Percent Inhibition: GABA, Chloride, TBOB Site [2]: -28.46%
Percent Inhibition: GABA-B [2]: 18.61%
Percent Inhibition: Glutamate, AMPA Site (Ionotropic) [2]: 8.62%
Percent Inhibition: Glutamate, Kainate Site (Ionotropic) [2]: -7.63%
Percent Inhibition: Glutamate, MK-801 Site (Ionotropic) [2]: -0.50%
Percent Inhibition: Glutamate, NMDA Agonist Site (Ionotropic) [2]: 23.69%
Percent Inhibition: Glutamate, NMDA, Phencyclidine Site (Ionotropic) [2]: 6.26%
Percent Inhibition: Glutamate,NMDA,Glycine (Stry-insens Site) [2]: -0.97%
Percent Inhibition: Glycine, Strychnine-sensitive [2]: -19.46%
Percent Inhibition: Histamine, H2 [2]: 40.98%
Percent Inhibition: Histamine, H3 [2]: 22.25%
Percent Inhibition: Histamine, Hl [2]: 5.94%
Percent Inhibition: Leukotriene, LTB4 (BLT) [2]: 22.06%
Percent Inhibition: Leukotriene, LTD4 (CysLTl) [2]: 28.77%
Percent Inhibition: Neurokinin, NKl [2]: 20.40%
Percent Inhibition: Nicotinic, Neuronal (a-BnTx insensitive) [2]: -17.51%
Percent Inhibition: Nitric Oxide, NOS (Neuronal-Binding) [2]: -1.73%
Percent Inhibition: Norepinephrine Transporter [2]: 5.73%
Percent Inhibition: Phosphodiesterase, PDE4A1A (h) [2]: 14.00%
Percent Inhibition: Potassium Channel, ATP-Sensitive [2]: -1.01%
Percent Inhibition: Potassium Channel, Ca2+ Act., VI [2]: 18.66%
Percent Inhibition: Serotonin Transporter [2]: 5.96%
Percent Inhibition: Serotonin, 5HT1D [2]: 5.13%
Percent Inhibition: Serotonin, 5HT2A [2]: 8.50%
Percent Inhibition: Serotonin, 5HT2C [2]: 12.77%
Percent Inhibition: Serotonin, 5HT3 [2]: 6.61%
Percent Inhibition: Serotonin, 5HT4 [2]: 36.08%
Percent Inhibition: Sigma 2 [2]: -0.71%
Percent Inhibition: Sodium, Site 2 [2]: 14.53%
Percent Inhibition: Muscarinic, M4 (h) [3]: 27.60%
Percent Inhibition: Opioid, Delta 2 (h) [4]: 20.37%
Percent Inhibition: Serotonin, 5HT5A (h) [5]: 11.09%
inhibition at 10 µM [6]: -18%
% PU-HZ151 remaining (CYP2A6; 15 min): 57.2%
% PU-HZ151 remaining (CYP2A6; 30 min): 36.6%
% PU-HZ151 remaining (CYP2A6; 60 min): 18.4%
inhibition of PU-HZ151 metabolism (CYP2A6; tranylcypromine): essentially no effect
